Assay results taken from PubChem BioAssay (NCI).
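Cells were grown in 96-well plates and exposed to each compound for 48 hours at five concentrations; endpoints were interpolated linearly between bracketing concentrations, or set to the highest concentration if not reached. Abbreviation: GI50, concentration required for 50% inhibition of growth. At the TGI there is no net growth.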

Assays:
Assay in all cases: NCI anticancer screen, dose series, 48 h
UACC-257 melanoma = test system: UACC-257 melanoma
IGROV1 ovarian = test system: IGROV1 ovarian
SF-295 CNS = test system: SF-295 CNS
HOP-62 NSCLC = test system: HOP-62 NSCLC
SK-OV-3 ovarian = test system: SK-OV-3 ovarian
MALME-3M melanoma = test system: MALME-3M melanoma
786-0 renal = test system: 786-0 renal
NCI-H23 lung = test system: NCI-H23 lung
EKVX NSCLC = test system: EKVX NSCLC
NCI/ADR-RES ovarian = test system: NCI/ADR-RES ovarian
MDA-MB-435 = test system: MDA-MB-435

`CC12O[C@H](c3ccccc3)[C@H](c3ccccc3)N1C(=O)C1(C(=O)OCc3ccccc3)CC12` (stereo not given in full) was tested, and the TGI (UACC-257 melanoma) was > 100 µM, the TGI (IGROV1 ovarian) was > 100 µM and the TGI (SF-295 CNS) was > 100 µM. For the same compound, the TGI (HOP-62 NSCLC) was > 100 µM, the TGI (SK-OV-3 ovarian) was > 100 µM and the TGI (MALME-3M melanoma) was > 100 µM. For the same compound, the TGI (786-0 renal) was > 100 µM.

With `NC(=O)N/N=C(\Cc1nc2ccc(C(=O)c3ccccc3)cc2[nH]c1=O)C(=O)Nc1ccc(Br)cc1` the TGI (UACC-257 melanoma) was > 100 µM, the TGI (NCI-H23 lung) was > 100 µM and the TGI (IGROV1 ovarian) was > 100 µM. For the same compound, the TGI (EKVX NSCLC) was > 100 µM, the TGI (SF-295 CNS) was > 100 µM and the TGI (HOP-62 NSCLC) was > 100 µM. For the same compound, the TGI (SK-OV-3 ovarian) was > 100 µM, the TGI (MALME-3M melanoma) was > 100 µM and the TGI (786-0 renal) was > 100 µM.

In the case of `CC(=O)NNc1nc(C)c(C(/C=C/c2ccc(Cl)cc2)=N\NS(=O)(=O)c2ccc(C)cc2)s1`, the TGI (UACC-257 melanoma) is reported as > 100 µM, the TGI (NCI-H23 lung) is reported as > 100 µM and the TGI (IGROV1 ovarian) is reported as > 100 µM. For the same compound, the TGI (EKVX NSCLC) was > 100 µM, the TGI (SF-295 CNS) was > 100 µM and the TGI (HOP-62 NSCLC) was > 100 µM. The TGI (SK-OV-3 ovarian) was > 100 µM, the TGI (MALME-3M melanoma) was > 100 µM and the TGI (786-0 renal) was > 100 µM.

For `CN1N=C2c3ccccc3CC[C@H]2C1c1ccccc1` (stereo not given in full), the TGI (UACC-257 melanoma) was 70.3 µM, the TGI (NCI-H23 lung) was > 100 µM and the TGI (IGROV1 ovarian) was > 100 µM. The TGI (EKVX NSCLC) was > 100 µM, the TGI (SF-295 CNS) was > 100 µM and the TGI (HOP-62 NSCLC) was > 100 µM. The TGI (SK-OV-3 ovarian) was > 100 µM, the TGI (MALME-3M melanoma) was 72.9 µM and the TGI (786-0 renal) was > 100 µM.

For `CN(C)CCNCc1c2ccccc2c(CNCCN(C)C)c2ccccc12`, the TGI (UACC-257 melanoma) was 32.5 µM, the TGI (NCI/ADR-RES ovarian) was > 100 µM and the TGI (NCI-H23 lung) was > 100 µM. The TGI (IGROV1 ovarian) was > 69.4 µM, the TGI (EKVX NSCLC) was > 100 µM and the TGI (SF-295 CNS) was > 100 µM. It also gave a TGI (HOP-62 NSCLC) of 75.5 µM, a TGI (SK-OV-3 ovarian) of 42.5 µM and a TGI (MALME-3M melanoma) of 35.4 µM.

With `O=c1ccc2ccccc2o1` the TGI (UACC-257 melanoma) was > 100 µM, the TGI (NCI-H23 lung) was > 100 µM and the TGI (IGROV1 ovarian) was > 100 µM. For the same compound, the TGI (EKVX NSCLC) was > 100 µM, the TGI (SF-295 CNS) was > 100 µM and the TGI (HOP-62 NSCLC) was > 100 µM. The TGI (SK-OV-3 ovarian) was > 100 µM, the TGI (MALME-3M melanoma) was > 100 µM and the TGI (786-0 renal) was > 100 µM.

`CN1CCN(CC(=O)Nc2ccc3ncnc(Nc4ccc(Oc5cccc(C(F)(F)F)c5)c(Cl)c4)c3c2)CC1` showed a GI50 (UACC-257 melanoma) of 1.93 µM, a TGI (UACC-257 melanoma) of 3.79 µM and a GI50 (MDA-MB-435) of 1.58 µM. The TGI (MDA-MB-435) was 2.97 µM, the GI50 (EKVX NSCLC) was 1.32 µM and the TGI (EKVX NSCLC) was 2.7 µM. It also gave a GI50 (SF-295 CNS) of 1.81 µM, a TGI (SF-295 CNS) of 3.31 µM and a GI50 (MALME-3M melanoma) of 1.56 µM. For the same compound, the TGI (MALME-3M melanoma) was 3.05 µM.

With `Cc1ccc(NC(=O)CC(=O)n2nc(-c3ccccc3)c(N=Nc3ccc(Cl)cc3)c2-c2ccccc2)cc1` the TGI (UACC-257 melanoma) was > 100 µM, the TGI (NCI-H23 lung) was > 100 µM and the TGI (IGROV1 ovarian) was > 100 µM. For the same compound, the TGI (EKVX NSCLC) was > 100 µM, the TGI (SF-295 CNS) was > 100 µM and the TGI (HOP-62 NSCLC) was > 100 µM. For the same compound, the TGI (SK-OV-3 ovarian) was > 100 µM, the TGI (MALME-3M melanoma) was > 100 µM and the TGI (786-0 renal) was 45.2 µM.

For `CN(C)c1ccc(/C=C/c2sc3ccc4ccccc4c3[n+]2C)cc1`, the GI50 (NCI/ADR-RES ovarian) was 2.81 µM, the TGI (NCI/ADR-RES ovarian) was > 100 µM and the GI50 (IGROV1 ovarian) was 0.368 µM. The TGI (IGROV1 ovarian) was 1.66 µM, the GI50 (SF-295 CNS) was 0.395 µM and the TGI (SF-295 CNS) was 2.32 µM. It also gave a GI50 (SK-OV-3 ovarian) of 0.482 µM and a TGI (SK-OV-3 ovarian) of 2.4 µM.

In the case of `Cc1cc(Cc2cc(C)c(NC(=O)C(=O)C3C(=O)NC(=S)NC3=O)c(C(C)C)c2)cc(C(C)C)c1NC(=O)C(=O)C1C(=O)NC(=S)NC1=O`, the TGI (UACC-257 melanoma) is reported as > 100 µM, the TGI (NCI-H23 lung) is reported as > 100 µM and the TGI (IGROV1 ovarian) is reported as > 100 µM. For the same compound, the TGI (EKVX NSCLC) was > 100 µM, the TGI (SF-295 CNS) was > 100 µM and the TGI (HOP-62 NSCLC) was > 100 µM. For the same compound, the TGI (SK-OV-3 ovarian) was > 100 µM, the TGI (MALME-3M melanoma) was > 100 µM and the TGI (786-0 renal) was > 100 µM.

In the case of `COc1ccc(NC(=O)C(=O)NNC(=O)c2sc(NNC(C)=O)nc2C)c([N+](=O)[O-])c1`, the TGI (UACC-257 melanoma) is reported as > 100 µM, the TGI (NCI-H23 lung) is reported as > 100 µM and the TGI (EKVX NSCLC) is reported as > 100 µM. The TGI (SF-295 CNS) was > 100 µM, the TGI (HOP-62 NSCLC) was > 100 µM and the TGI (SK-OV-3 ovarian) was > 100 µM. For the same compound, the TGI (MALME-3M melanoma) was > 100 µM and the TGI (786-0 renal) was > 100 µM.

`CCc1cccc(C(C)C)c1NC(=O)C(=O)C(C(=O)C(=O)OC)c1nc2ccccc2[nH]c1=O` (stereo not given) was tested, and the TGI (UACC-257 melanoma) was > 100 µM, the TGI (NCI-H23 lung) was > 100 µM and the TGI (IGROV1 ovarian) was > 100 µM. The TGI (EKVX NSCLC) was > 100 µM, the TGI (SF-295 CNS) was > 100 µM and the TGI (SK-OV-3 ovarian) was > 100 µM. The TGI (MALME-3M melanoma) was > 100 µM and the TGI (786-0 renal) was > 100 µM.

In the case of `Cc1cc(N(CCC#N)CCC#N)ccc1/C=C(\NC(=O)/C=C/c1ccccc1)NC(=O)Nc1ccc(Cl)cc1`, the TGI (UACC-257 melanoma) is reported as > 100 µM, the TGI (NCI-H23 lung) is reported as > 100 µM and the TGI (IGROV1 ovarian) is reported as > 100 µM. The TGI (EKVX NSCLC) was > 100 µM, the TGI (SF-295 CNS) was > 100 µM and the TGI (MALME-3M melanoma) was > 100 µM. The TGI (786-0 renal) was > 100 µM.

`CCSc1nc2sc(C)c(C)c2c(=O)n1-c1ccc(C(=O)O)cc1` was tested, and the TGI (UACC-257 melanoma) was > 100 µM, the TGI (NCI-H23 lung) was > 100 µM and the TGI (IGROV1 ovarian) was > 100 µM. The TGI (EKVX NSCLC) was > 100 µM, the TGI (SF-295 CNS) was > 100 µM and the TGI (HOP-62 NSCLC) was > 100 µM. The TGI (SK-OV-3 ovarian) was > 100 µM, the TGI (MALME-3M melanoma) was > 100 µM and the TGI (786-0 renal) was > 100 µM.

`C[C@@]12CC[C@H]3[C@@H]4CCC(=O)N[C@@]4(C)CC[C@@H]3[C@@]1(C)CC[C@H](OC(=O)Cc1ccc(N(CCCl)CCCl)cc1)C2` showed a TGI (UACC-257 melanoma) of 55.8 µM, a TGI (NCI/ADR-RES ovarian) of 37 µM and a TGI (NCI-H23 lung) of 30.3 µM. It also gave a TGI (IGROV1 ovarian) of 31.3 µM, a TGI (EKVX NSCLC) of 31.3 µM and a TGI (SF-295 CNS) of 31.5 µM. The TGI (HOP-62 NSCLC) was 31.1 µM, the TGI (SK-OV-3 ovarian) was 28.5 µM and the TGI (MALME-3M melanoma) was 36.1 µM.

With `O=C(CSc1nnc(Cc2ccccc2)o1)Nc1ccc(Cl)cc1` the TGI (UACC-257 melanoma) was > 100 µM, the TGI (NCI-H23 lung) was > 100 µM and the TGI (IGROV1 ovarian) was > 100 µM. The TGI (EKVX NSCLC) was 92.4 µM, the TGI (SF-295 CNS) was > 100 µM and the TGI (HOP-62 NSCLC) was > 100 µM. For the same compound, the TGI (SK-OV-3 ovarian) was > 100 µM, the TGI (MALME-3M melanoma) was > 100 µM and the TGI (786-0 renal) was > 100 µM.

In the case of `N#C/C(=C/c1cccnc1)C(=O)c1ccccc1`, the TGI (UACC-257 melanoma) is reported as > 100 µM, the TGI (NCI-H23 lung) is reported as > 100 µM and the TGI (EKVX NSCLC) is reported as > 100 µM. For the same compound, the TGI (SF-295 CNS) was > 100 µM, the TGI (HOP-62 NSCLC) was > 100 µM and the TGI (SK-OV-3 ovarian) was > 100 µM. For the same compound, the TGI (MALME-3M melanoma) was > 100 µM and the TGI (786-0 renal) was > 100 µM.

For `O=[N+]([O-])c1ccc(NC2OCC(O)C(O)C2O)cc1` (stereo not given), the TGI (UACC-257 melanoma) was > 100 µM, the TGI (NCI-H23 lung) was > 100 µM and the TGI (IGROV1 ovarian) was > 100 µM. The TGI (EKVX NSCLC) was > 100 µM, the TGI (SF-295 CNS) was > 100 µM and the TGI (HOP-62 NSCLC) was > 100 µM. The TGI (SK-OV-3 ovarian) was > 100 µM, the TGI (MALME-3M melanoma) was > 100 µM and the TGI (786-0 renal) was > 100 µM.
